SMILES strings stand for the structures. Where two headings read alike, the source gives them in different places. Marks after values point to notes of the source that are not given here.

We go through twelve compounds from US6818226B2, “Dermal penetration enhancers and drug delivery systems involving same” (ACRUX DDS Pty. Ltd., priority 1996, dated 2004).

Data set [1] is classed as physicochemical. The text has this: Japanese patent JP 61-268631 to Showa Denko KK discloses dermal penetration enhancers suitable for use with water-soluble drugs. The dermal penetration enhancers disclosed include 1-5 carbon fatty acid esters of para-aminobenzoic acid but their chemical structures are quite distinct from the compounds used in the present invention, and the physicochemical properties of the 1-5 carbon fatty acid esters of para-aminobenzoic acid are markedly different to those of the present invention. For example the octanol-water partition coefficients for all the 1-5 carbon fatty acid esters of para-aminobenzoic acid are at least 200 fold lower than those of the present invention. Also the preferred dermal penetration enhancer disclosed in JP 61-268631 is the 2 carbon fatty acid ester of para-aminobenzoic acid (or Benzocaine) which has an octanol-water partition coefficient which is more than 8000 fold lower than those of the present invention. Unlike those of the present invention, the preferred dermal penetration enhancer disclosed in JP 61-268631 has significant pharmacological properties in that it is a local anaesthetic, which has also been reported to cause irritant and allergic skin reactions. […]

The nature of data set [2]: Flux of oestradiol, progesterone, norethisterone acetate, ibuprofen, flurbiprofen across shed snake skin, 5 microL/cm^2 (Example 11). The format is in vitro ADME. The conditions noted are these: Children's python.
Data set [3] is described as follows: Ketoprofen flux from transdermal patch across snake skin (Example 9). The format is in vitro ADME, Children's python. The conditions noted are these: control transdermal patch without enhancer, over 24 h. How it is done:
(§1) Dermatol., 94; 235-240, 1990.
(§2) Degassing was repeated three times.
The patches were prepared by dissolving 300 mg of ketoprofen, 400 mg of penetration enhancer, 300 mg of polyethylene glycol 400 and 800 mg of hydroxypropylcellulose in 20 mL of ethanol and stirring until viscous. This was then poured onto a clean glass plate and dried at 40 degrees Celsius for 1 h. The thickness of this film was approximately 1 mm. Circles of 0.8 cm^2 were then cut out of this matrix and stuck onto the middle of 2.0 cm^2 circles of OPSITE™ adhesive bandage. This patch was then stuck onto 2.0 cm^2 pieces of snake skin and placed in the diffusion cell. The ketoprofen content of each patch formulation was determined by HPLC in triplicate and found to be 6.99+/−0.30 mg/cm^2 and 6.76+/−0.24 mg/cm^2, for the control and octyl salicylate patches respectively (mean content+/−std error, […]).

A short description of data set [4]: Diffusion of ketoprofen across snake skin, enhancer included in the formulation (Example 3). Particulars: control, no enhancer; 2% w/v ketoprofen in 70% aqueous ethanol; 24 h.
The nature of data set [5]: Diffusion of ketoprofen across shed snake skin after pretreatment with enhancer (Example 1). Particulars: control, no enhancer: 70% aqueous ethanol alone for 2 hours before 2% ketoprofen; 24 h.
The nature of data set [6]: Hydroquinone penetration across full-thickness guinea pig skin in vitro from gel, Franz cells (Example 4). An excerpt: Adult guinea pigs of either sex (weight range 500 g-750 g) were used. The hair on the back flank and back was removed with the aid of depilatory wax (Arielle™) under halothane anaesthesia. Seven days later, after the stratum corneum had completely regenerated, the guinea pigs were killed and the skin removed and placed on a chilled slab. […] For in vivo experiments the guinea pigs were housed in individual cages and the topical hydroquinone formulations were applied to the hair-free areas. Each guinea pig received the test or control formulation on the corresponding contralateral site, thus allowing each animal to act as its own control.
Radiolabelled hydroquinone (C14, Amersham) was added to each of the topical formulations. At specified time intervals 200 microL of receptor solution was withdrawn with a micro-pipette and replaced with 200 microL of fresh normal saline. The 200 microL samples were added to 800 microL of water which in turn was added to 10 mL of scintillation cocktail consisting of Toluene™ 1L, PPO 5g, POPOP 0.1 g and Triton X™ 500 mL. The scintillation counting was performed on a Packard Tricarb 460C instrument. Disintegrations per minute were determined by an external standard procedure and calculated by the data system of the instrument.

Data set [7] in a line: Ibuprofen penetration across full-thickness hairless mouse skin in vitro (Example 5). The conditions noted are these: control, no enhancer; 2% w/v ibuprofen in 70% aqueous ethanol.
Data set [8] is described as follows: Flux of oestradiol, progesterone, norethisterone acetate, ibuprofen, flurbiprofen across shed snake skin, 5 microL/cm^2 (Example 11). The data set is classed as in vitro ADME, Children's python. The conditions noted are these: for Enhancement ratio: 24 h.
Source text: as §1, §2
In order to further illustrate the present invention and the advantages thereof, the following specific examples are given, it being understood that same are intended only as illustrative and in nowise limitative. In the examples, the effectiveness of the dermal penetration enhancers are illustrated by measuring the skin penetration of physiologically active agents. Also, the skin penetration of the dermal penetration enhancers of this invention were compared with that of other penetration enhancers as well as formulations of bio-affecting agents with common adjuvants. The comparisons made generally consisted of measuring the relative penetration through shed snake skin of the various formulations. In the examples, the in vitro skin penetration studies were performed using the same in vitro diffusion cell apparatus as previously mentioned.
The two penetration enhancers given as examples are octyl dimethyl PABA and Azone. Both penetration enhancers were again at a concentration of 8% v/v within the formulations and control was without a penetration enhancer. A concentration of 2% w/v oestradiol was used in the formulation and detection wavelength was 212 nm and the mobile phase consisted of acetonitrile:water (40%:60%).

Data set [9] concerns full-thickness guinea pig skin in vivo. The data set is described as follows: Melanin content of guinea pig skin in vivo after topical hydroquinone solution (Example 4). Particulars: for Enhancement ratio (enhancer/control): melanin content. The procedure: Melanin content was measured by reflectance absorbance from the treated and untreated skin according to the methods outlined in the PhD thesis of Anderson, J. R., titled The Development of Techniques for Measuring the Bioavailability of Topical Depigmenting Agents (School of Pharmaceutics, Victorian College of Pharmacy Ltd., Parkville, Victoria, Australia, Dec., 1985).

Data set [10] is classed as in vitro ADME, Children's python.
Source text: as §1, §2
The control formulation contained no penetration enhancer. The detection wavelength was 242 nm and the mobile phase consisted of acetonitrile:water (35%:65%).

The conditions of data set [11]: Children's python, 24 h, 2 % v/v.
For data set [12] the following is noted: hairless, mouse, 2 % v/v.
The nature of data set [13]: Diffusion of indomethacin (Indospray) across snake skin after pretreatment with Octyl dimethyl PABA (Example 2). The data set is classed as in vitro ADME. The conditions noted are these: Children's python, 24 h. The procedure:
as §1, §2
10 microL of increasing concentrations of Octyl dimethyl PABA in absolute ethanol were applied 30 mins prior to the application of the indomethacin formulation. The control experiment involved application of 10 microL of absolute ethanol alone 30 mins prior to the application of the indomethacin formulation. Samples were assayed according to the method described previously.

[14] abbreviates: Children's python, 24 h, 8 % v/v.

Regarding `CCOC(=O)c1ccc(N)cc1` [Benzocaine, 2 carbon fatty acid ester of para-aminobenzoic acid], the “octanol-water partition coefficient, fold lower than those of the present invention” value in data set [1] is reported as “more than 8000 fold”.

`C#C[C@]1(OC(C)=O)CC[C@H]2[C@@H]3CCC4=CC(=O)CC[C@@H]4[C@H]3CC[C@@]21C` [Norethisterone acetate, norethisterone acetate]: the “Mean flux +/− std error of norethisterone acetate” value in data set [2] (24 h, 6 % w/v) is recorded as 0.14 +/− 0.02 microg/cm^2 · h.

`CC(C(=O)O)c1cccc(C(=O)c2ccccc2)c1` (stereo not drawn) [ketoprofen]: the “Mean flux +/− std error of ketoprofen” value in data set [3] is given as 0.47 ± 0.04 microg/cm^2.h; in data set [4] it was 0.78 ± 0.07 microg/cm^2.h; in data set [5], 0.96 ± 0.18 microg/cm^2.h.

For `CCCCC(CC)COC(=O)C=Cc1ccc(OC)cc1` (stereo not drawn) [PARSOL ® MCX], the Flux of hydroquinone in data set [6] (HQ gel 15 mg/cm^2 with enhancer (PARSOL MCX 3% v/v, ESCALOL 507 3% v/v, AZONE 5% v/v as in row)) stood at 0.93 ± 0.19 % dose/h. In data set [6] (hydroquinone flux from gel, guinea pig skin in vitro), the “Enhancement ratio (enhancer/control)” value was 2.7.

Consider `CC(C(=O)O)c1ccc(-c2ccccc2)c(F)c1` (stereo not drawn) [Flurbiprofen, flurbiprofen], for which the “Mean flux +/− std error of flurbiprofen” value in data set [2] (20 %) is 0.81 +/− 0.05 microg/cm^2 · h.

In the case of `CC(C)Cc1ccc(C(C)C(=O)O)cc1` (stereo not drawn) [Ibuprofen, ibuprofen], in data set [7], the “median amount of ibuprofen penetrated after 12 hours” value (“median amount … after 12 hours” for short) stood at 474 μg/cm^2 and the “median amount of ibuprofen penetrated after 24 hours” value (shortened to “median amount … after 24 hours”) turned out to be 1819 μg/cm^2. The “Mean flux +/− std error of ibuprofen” value in data set [2] (20 %) is given as 5.39 +/− 0.50 microg/cm^2 · h.

As for `C[C@]12CC[C@@H]3c4ccc(O)cc4CC[C@H]3[C@@H]1CC[C@@H]2O` [Oestradiol, oestradiol], the “Mean flux +/− std error of oestradiol” value in data set [8] (control without penetration enhancer, 2% w/v oestradiol) is on record as 0.06 +/− 0.01 microg/cm^2 · h.

Take `Oc1ccc(O)cc1` [HQ, hydroquinone]: the Melanin content in data set [9] (HQ 1% w/v control, no enhancer, 5 microL/cm^2) was found to be 57.5 ± 3.7 μg/cm^2; in [9] (HQ 2% w/v control, no enhancer, 5 microL/cm^2) it was 36.8 ± 8.1 μg/cm^2. Moreover, in data set [6] (control gel, no enhancer, 15 mg/cm^2), the Flux of hydroquinone is given as 0.35 ± 0.10 % dose/h.

Consider `C[C@]12CCC(=O)C=C1CC[C@@H]1[C@@H]2[C@@H](O)C[C@@]2(C)[C@H]1CC[C@]2(O)C(=O)CO` [hydrocortisone], for which, in data set [10] (control, no enhancer, 1% w/v hydrocortisone in 70% aqueous ethanol), the “Mean flux +/− std error of hydrocortisone” value is reported as 0.14 +/− 0.04 microg/cm^2.h.

Regarding `CCCCC(CC)COC(=O)c1ccc(N(C)C)cc1` (stereo not drawn) [Octyl dimethyl PABA, Octyl dimethyl-para-aminobenzoate], in [8] (Children's python, 8 % v/v), the “Mean flux +/− std error of oestradiol” value was 0.26 +/− 0.01 microg/cm^2 · h and the Enhancement ratio worked out at 2.4. Besides, in [10] (setting [14]), the Enhancement ratio is recorded as 5.8 and the “Mean flux +/− std error of hydrocortisone” value is recorded as 0.79 +/− 0.06 microg/cm^2.h. Further, the Melanin content in [9] (HQ 1% w/v with enhancer 2% v/v, finite dose solution 5 microL/cm^2) came out at 38.2 ± 3.1 μg/cm^2. In data set [9] (HQ 1% w/v with enhancer 2% v/v versus HQ 1% w/v control), the “Enhancement ratio (enhancer/control)” value was determined as 1.5. The Enhancement ratio in [11] was determined as 3.5. In [12], the “median amount … after 12 hours” value is recorded as 1123* μg/cm^2 and the “median amount … after 24 hours” value is given as 2981* μg/cm^2. Besides, the “Enhancement ratio (enhancer/control)” value in data set [6] (both, guinea pig, 3 % v/v) is 2.9. Besides, in [2] (8 % v/v), the “Mean flux +/− std error of flurbiprofen” value is given as 2.91 +/− 0.30 microg/cm^2 · h, the “Mean flux +/− std error of ibuprofen” value is 13.16 +/− 1.21 microg/cm^2 · h and the “Mean flux +/− std error of norethisterone acetate” value is on record as 1.85 +/− 0.07 microg/cm^2 · h. In data set [2] (24 h, 8 % v/v), the “Mean flux +/− std error of progesterone” value is 0.95 +/− 0.03 microg/cm^2 · h. Also, in data set [13] (1.6 % v/v), the Enhancement ratio is 1.2 and the “Mean flux +/− std error of indomethacin” value is recorded as 1.43 +/− 0.14 microg.cm^2.h. For the same compound, in [13] (3.2 % v/v), the Enhancement ratio is 1.4 and the “Mean flux +/− std error of indomethacin” value is given as 1.71 +/− 0.32 microg.cm^2.h. In data set [13] (6.4 % v/v), the Enhancement ratio was found to be 1.6 and the “Mean flux +/− std error of indomethacin” value is 1.94 +/− 0.09 microg.cm^2.h.

Regarding `CC(=O)[C@H]1CC[C@H]2[C@@H]3CCC4=CC(=O)CC[C@]4(C)[C@H]3CC[C@]12C` [Progesterone, progesterone], in data set [2] (24 h, 6 % w/v), the “Mean flux +/− std error of progesterone” value is listed as 0.40 +/− 0.02 microg/cm^2 · h.

`CCCCCCCCCCCCN1CCCCCC1=O` [Azone, 1-dodecal-azacycloheptane-2-one]: in data set [8] (Children's python, 8 % v/v), the “Mean flux +/− std error of oestradiol” value is 0.40 +/− 0.05 microg/cm^2 · h and the Enhancement ratio came to 5.4. Also, in data set [9] (HQ 2% w/v with enhancer 2% v/v, finite dose solution 5 microL/cm^2), the Melanin content was 39.5 ± 9.6 μg/cm^2. Moreover, in [9] (HQ 2% w/v with enhancer 2% v/v versus HQ 2% w/v control), the “Enhancement ratio (enhancer/control)” value is on record as 0.93. Moreover, in data set [11], the Enhancement ratio was determined as 3.6. For the same compound, in data set [12], the “median amount … after 12 hours” value is reported as 1036* μg/cm^2 and the “median amount … after 24 hours” value is 2684* μg/cm^2. Also, in data set [2] (8 % v/v), the “Mean flux +/− std error of flurbiprofen” value was 2.05 +/− 0.42 microg/cm^2 · h, the “Mean flux +/− std error of ibuprofen” value is reported as 13.53 +/− 1.38 microg/cm^2 · h and the “Mean flux +/− std error of norethisterone acetate” value was 0.16 +/− 0.02 microg/cm^2 · h. Also, in data set [2] (24 h, 8 % v/v), the “Mean flux +/− std error of progesterone” value is 2.17 +/− 0.33 microg/cm^2 · h.
